{"source": "the supplement of paper PMC10307832", "assay_in_all_cases": "relative viability (nuclei count vs DMSO), 5 days (fraction); higher = more cells survive", "key": {"[1]": {"test_system": "NCI-H1993", "summary_of_the_method": "(§1)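 Cells from lung cancer lines were seeded into 1536-well plates and, one day later, dosed by pin tool. Treatments were either a single drug or a fixed dose of an anchor drug with five library-drug doses (not always all listed) in √10 steps. After 5 days, nuclei were stained in a one-step fixation (final 0.05% Triton X-100, 1% formaldehyde, 1 ug/ml Hoechst) and counted on 4× images, and relative viability is the treated-to-vehicle nuclei ratio, as the median of duplicate plates.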"}, "[2]": {"test_system": "NCI-H1944", "summary_of_the_method": "as §1"}, "[3]": {"test_system": "NCI-H358", "summary_of_the_method": "as §1"}, "[4]": {"test_system": "LXF-289", "summary_of_the_method": "as §1"}, "[5]": {"test_system": "COR-L 105", "summary_of_the_method": "as §1"}, "[6]": {"test_system": "NCI-H2023", "summary_of_the_method": "as §1"}, "[7]": {"test_system": "NCI-H2170", "summary_of_the_method": "as §1"}, "[8]": {"test_system": "NCI-H520", "summary_of_the_method": "as §1"}, "[9]": {"test_system": "SW 900", "summary_of_the_method": "as §1"}, "[10]": {"test_system": "NCI-H2087", "summary_of_the_method": "as §1"}, "[11]": {"test_system": "H3255", "summary_of_the_method": "as §1"}, "[12]": {"test_system": "SK-MES-1", "summary_of_the_method": "as §1"}, "[13]": {"test_system": "HCC-827", "summary_of_the_method": "as §1"}, "[14]": {"test_system": "NCI-H1793", "summary_of_the_method": "as §1"}, "[15]": {"test_system": "SW 1573", "summary_of_the_method": "as §1"}, "[16]": {"test_system": "LOU-NH91", "summary_of_the_method": "as §1"}, "[17]": {"test_system": "LCLC-103H", "summary_of_the_method": "as §1"}, "[18]": {"test_system": "NCI-H1975", "summary_of_the_method": "as §1"}, "[19]": {"test_system": "NCI-H1915", "summary_of_the_method": "as §1"}, "[20]": {"test_system": "A-427", "summary_of_the_method": "as §1"}}}
{"smiles": "Cc1csc(=NC2CCCCC2)n1/N=C/c1ccc(O)c(O)c1O", "note": "[MIM1] + COc1cc2c(Oc3ccc(NC(=O)C4(C(=O)Nc5ccc(F)cc5)CC4)cc3F)ccnc2cc1OCCCN1CCOCC1 [Foretinib] (partner 0.25 µM)", "values": [{"measurement": "relative viability", "setting": "[1]; first compound 0.2 µM", "result": 0.7}, {"measurement": "relative viability", "setting": "[1]; first compound 0.6325 µM", "result": 0.715}, {"measurement": "relative viability", "setting": "[1]; first compound 2 µM", "result": 0.671}, {"measurement": "relative viability", "setting": "[1]; first compound 6.325 µM", "result": 0.659}, {"measurement": "relative viability", "setting": "[1]; first compound 20 µM", "result": 0.64}, {"measurement": "relative viability", "setting": "[2]; first compound 0.2 µM", "result": 0.908}, {"measurement": "relative viability", "setting": "[2]; first compound 0.6325 µM", "result": 0.93}, {"measurement": "relative viability", "setting": "[2]; first compound 2 µM", "result": 0.581}, {"measurement": "relative viability", "setting": "[2]; first compound 6.325 µM", "result": 0.709}, {"measurement": "relative viability", "setting": "[2]; first compound 20 µM", "result": 0.564}, {"measurement": "relative viability", "setting": "[3]; first compound 0.2 µM", "result": 0.646}, {"measurement": "relative viability", "setting": "[3]; first compound 0.6325 µM", "result": 0.758}, {"measurement": "relative viability", "setting": "[3]; first compound 2 µM", "result": 0.623}, {"measurement": "relative viability", "setting": "[3]; first compound 6.325 µM", "result": 0.348}, {"measurement": "relative viability", "setting": "[3]; first compound 20 µM", "result": 0.149}, {"measurement": "relative viability", "setting": "[4]; first compound 0.2 µM", "result": 1.02}, {"measurement": "relative viability", "setting": "[4]; first compound 0.6325 µM", "result": 0.9}, {"measurement": "relative viability", "setting": "[4]; first compound 2 µM", "result": 1.03}, {"measurement": "relative viability", "setting": "[4]; first compound 6.325 µM", "result": 0.789}, {"measurement": "relative viability", "setting": "[4]; first compound 20 µM", "result": 0.721}, {"measurement": "relative viability", "setting": "[5]; first compound 0.2 µM", "result": 1.02}, {"measurement": "relative viability", "setting": "[5]; first compound 0.6325 µM", "result": 0.821}, {"measurement": "relative viability", "setting": "[5]; first compound 2 µM", "result": 1.19}, {"measurement": "relative viability", "setting": "[5]; first compound 6.325 µM", "result": 1.08}, {"measurement": "relative viability", "setting": "[5]; first compound 20 µM", "result": 0.774}, {"measurement": "relative viability", "setting": "[6]; first compound 0.2 µM", "result": 0.691}, {"measurement": "relative viability", "setting": "[6]; first compound 0.6325 µM", "result": 0.941}, {"measurement": "relative viability", "setting": "[6]; first compound 2 µM", "result": 0.7}, {"measurement": "relative viability", "setting": "[6]; first compound 6.325 µM", "result": 0.599}, {"measurement": "relative viability", "setting": "[6]; first compound 20 µM", "result": 0.453}, {"measurement": "relative viability", "setting": "[7]; first compound 0.2 µM", "result": 0.979}, {"measurement": "relative viability", "setting": "[7]; first compound 0.6325 µM", "result": 1.01}, {"measurement": "relative viability", "setting": "[7]; first compound 2 µM", "result": 0.824}, {"measurement": "relative viability", "setting": "[7]; first compound 6.325 µM", "result": 0.77}, {"measurement": "relative viability", "setting": "[7]; first compound 20 µM", "result": 0.295}, {"measurement": "relative viability", "setting": "[8]; first compound 0.2 µM", "result": 0.635}, {"measurement": "relative viability", "setting": "[8]; first compound 0.6325 µM", "result": 0.728}, {"measurement": "relative viability", "setting": "[8]; first compound 2 µM", "result": 0.587}, {"measurement": "relative viability", "setting": "[8]; first compound 6.325 µM", "result": 0.646}, {"measurement": "relative viability", "setting": "[8]; first compound 20 µM", "result": 0.501}, {"measurement": "relative viability", "setting": "[9]; first compound 0.2 µM", "result": 1.17}, {"measurement": "relative viability", "setting": "[9]; first compound 0.6325 µM", "result": 0.864}, {"measurement": "relative viability", "setting": "[9]; first compound 2 µM", "result": 0.854}, {"measurement": "relative viability", "setting": "[9]; first compound 6.325 µM", "result": 0.917}, {"measurement": "relative viability", "setting": "[9]; first compound 20 µM", "result": 0.443}, {"measurement": "relative viability", "setting": "[10]; first compound 0.2 µM", "result": 1.04}, {"measurement": "relative viability", "setting": "[10]; first compound 0.6325 µM", "result": 1.31}, {"measurement": "relative viability", "setting": "[10]; first compound 2 µM", "result": 1.18}, {"measurement": "relative viability", "setting": "[10]; first compound 6.325 µM", "result": 0.813}, {"measurement": "relative viability", "setting": "[10]; first compound 20 µM", "result": 0.847}, {"measurement": "relative viability", "setting": "[11]; first compound 0.2 µM", "result": 0.945}, {"measurement": "relative viability", "setting": "[11]; first compound 0.6325 µM", "result": 0.715}, {"measurement": "relative viability", "setting": "[11]; first compound 2 µM", "result": 0.743}, {"measurement": "relative viability", "setting": "[11]; first compound 6.325 µM", "result": 0.724}, {"measurement": "relative viability", "setting": "[11]; first compound 20 µM", "result": 0.307}, {"measurement": "relative viability", "setting": "[12]; first compound 0.2 µM", "result": 0.897}, {"measurement": "relative viability", "setting": "[12]; first compound 0.6325 µM", "result": 0.891}, {"measurement": "relative viability", "setting": "[12]; first compound 2 µM", "result": 0.861}, {"measurement": "relative viability", "setting": "[12]; first compound 6.325 µM", "result": 0.805}, {"measurement": "relative viability", "setting": "[12]; first compound 20 µM", "result": 0.758}, {"measurement": "relative viability", "setting": "[13]; first compound 0.2 µM", "result": 1.04}, {"measurement": "relative viability", "setting": "[13]; first compound 0.6325 µM", "result": 1}, {"measurement": "relative viability", "setting": "[13]; first compound 2 µM", "result": 1.01}, {"measurement": "relative viability", "setting": "[13]; first compound 6.325 µM", "result": 0.402}, {"measurement": "relative viability", "setting": "[13]; first compound 20 µM", "result": 0.207}, {"measurement": "relative viability", "setting": "[14]; first compound 0.2 µM", "result": 0.793}, {"measurement": "relative viability", "setting": "[14]; first compound 2 µM", "result": 0.735}, {"measurement": "relative viability", "setting": "[14]; first compound 6.325 µM", "result": 0.686}, {"measurement": "relative viability", "setting": "[14]; first compound 20 µM", "result": 1.01}, {"measurement": "relative viability", "setting": "[15]; first compound 0.2 µM", "result": 1.04}, {"measurement": "relative viability", "setting": "[15]; first compound 0.6325 µM", "result": 0.963}, {"measurement": "relative viability", "setting": "[15]; first compound 2 µM", "result": 0.809}, {"measurement": "relative viability", "setting": "[15]; first compound 6.325 µM", "result": 0.871}, {"measurement": "relative viability", "setting": "[15]; first compound 20 µM", "result": 0.539}, {"measurement": "relative viability", "setting": "[16]; first compound 0.2 µM", "result": 0.9}, {"measurement": "relative viability", "setting": "[16]; first compound 0.6325 µM", "result": 0.965}, {"measurement": "relative viability", "setting": "[16]; first compound 2 µM", "result": 0.833}, {"measurement": "relative viability", "setting": "[16]; first compound 6.325 µM", "result": 0.807}, {"measurement": "relative viability", "setting": "[16]; first compound 20 µM", "result": 0.39}, {"measurement": "relative viability", "setting": "[17]; first compound 0.2 µM", "result": 0.82}, {"measurement": "relative viability", "setting": "[17]; first compound 0.6325 µM", "result": 0.833}, {"measurement": "relative viability", "setting": "[17]; first compound 2 µM", "result": 0.942}, {"measurement": "relative viability", "setting": "[17]; first compound 6.325 µM", "result": 0.545}, {"measurement": "relative viability", "setting": "[17]; first compound 20 µM", "result": 0.364}, {"measurement": "relative viability", "setting": "[18]; first compound 0.2 µM", "result": 0.905}, {"measurement": "relative viability", "setting": "[18]; first compound 0.6325 µM", "result": 0.96}, {"measurement": "relative viability", "setting": "[18]; first compound 2 µM", "result": 0.837}, {"measurement": "relative viability", "setting": "[18]; first compound 6.325 µM", "result": 0.493}, {"measurement": "relative viability", "setting": "[18]; first compound 20 µM", "result": 0.316}, {"measurement": "relative viability", "setting": "[19]; first compound 0.2 µM", "result": 1.13}, {"measurement": "relative viability", "setting": "[19]; first compound 0.6325 µM", "result": 1.07}, {"measurement": "relative viability", "setting": "[19]; first compound 2 µM", "result": 1.07}, {"measurement": "relative viability", "setting": "[19]; first compound 6.325 µM", "result": 0.83}, {"measurement": "relative viability", "setting": "[19]; first compound 20 µM", "result": 0.251}, {"measurement": "relative viability", "setting": "[20]; first compound 0.2 µM", "result": 1.15}, {"measurement": "relative viability", "setting": "[20]; first compound 2 µM", "result": 1.05}, {"measurement": "relative viability", "setting": "[20]; first compound 6.325 µM", "result": 1.07}, {"measurement": "relative viability", "setting": "[20]; first compound 20 µM", "result": 0.25}]}
